Assays:
plasmid DNA = settings: 100 nM
Protocol: In vitro Bleomycin cleavage of DNA plasmid. […] Another equivalent of (NH4)2Fe(SO4)2.6H2O was added after 30 min and 60 min respectively. The mixture was loaded on 1% agarose with 6× loading dye and stained with ethidium bromide. Bands were quantified using ImageJ image analysis software.

[1] = molecular target: bulges 5′G_U/3′CUA, 5′GGU/3′C_A and 5′GAU/3′C_A; settings: previous study, cited from earlier work
pri-miR-17-92 cluster [2] = test: RT-qPCR of pri-, pre- and mature miRNAs in MDA-MB-231 cells; assay type: cell-based, human
Protocol: Absolute quantification of pri-, pre-, and mature miRNAs. Transcripts of pre-miR-17, pre-miR-18a, and the corresponding 5p mature sequences were transcribed in vitro and purified as described above. Precursor miRNAs (1×10^14 copies) were reverse transcribed using QScript RT (Quanta bio) in a total volume of 40 μL. Mature miRNAs (1×10^14 copies) were reverse transcribed using the miScript II RT Kit (Qiagen) in a total volume of 40 μL reaction. Serial dilutions of the RT reactions (1:10) were used to create a standard curve of copy number versus Ct which was used to calculate copy numbers of each transcript in DU-145 and MDA-MB-231 cells.

Cellular uptake analysis = assay type: in vitro ADME, human; settings: 5 μM, 24 h, DU-145 and MDA-MB-231
Protocol: Cellular uptake analysis. DU145 and MDA-MB-231 cells were seeded into a 96-well white clear bottom plate at 10,000 cells/well and allowed to adhere overnight. Once adhered, the cells were grown to ˜50% confluency and then treated with 2, 5, or 7 at 5 μM for 24 h while also leaving untreated wells for generation of a standard curve. This concentration was chosen to allow for adequate signal above noise. After 24 h, cells were lysed in 100 μL of RNA lysis buffer (Zymo Research) for 5 min. Compound 2, 5, or 7 were spiked into untreated samples at 100, 10, 1, 0.1, and 0.01 nM to create a standard curve of compound fluorescence. Using a Biotek FLX-800 fluorescence plate reader (excitation: 360/340; emission 460/440; sensitivity=90) the fluorescence of 2, 5, and 7 was measured. Concentrations were determined by extrapolating from the standard curves mentioned above.

pri-miR-17-92 cluster [3] = test: RT-qPCR of pri-, pre- and mature miRNAs in DU-145 cells; assay type: cell-based, human; settings: DU-145, treatment with 7
Protocol: RT-qPCR in DU145, MDA-MB-231, and WT-9-12 cells. DU145 cells were seeded into 12-well plates at ˜50% confluency (≈200,000 cells/well) and allowed to adhere for 12 h. After adhering, the cells were treated with compounds 2, 5, 6, or 7 (10, 100, and 500 nM) for 24 h. Total RNA was then harvested using a Zymo-Quick RNA Mini prep kit (Zymo Research) with DNase treatment according in the manufacturers protocol. Reverse transcription (RT) for mature miRNAs was done using the miScript II RT kit (Qiagen) with 200 ng of total RNA. To measure precursor and mRNA levels, RT was done using qScript (Quanta Bio) according to the manufacturers protocol on 1000 ng of total RNA. RT-qPCR was carried out on an Applied Biosystems 7900HT cycler under standard conditions (2 step PCR; 60° C. annealing/elongation, 95° C. melt) using the Power Sybr Master Mix (Applied Biosystems). […] Total RNA was extracted in a similar manner and subjected to RT-qPCR as described above. RT for precursor and mRNAs in MDA-MB-231 cells was done using the High Flex buffer in the miScript II RT kit.
Absolute quantification of pri-, pre-, and mature miRNAs. Transcripts of pre-miR-17, pre-miR-18a, and the corresponding 5p mature sequences were transcribed in vitro and purified as described above. Precursor miRNAs (1×10^14 copies) were reverse transcribed using QScript RT (Quanta bio) in a total volume of 40 μL. […]

## Cc1c(N)nc([C@H](CC(N)=O)NC[C@H](N)C(N)=O)nc1C(=O)N[C@H](C(=O)N[C@H](C)[C@@H](O)[C@H](C)C(=O)N[C@H](C(=O)NCCc1nc(-c2nc(C(=O)NCCCNCCCCN)cs2)cs1)[C@@H](C)O)[C@@H](O[C@@H]1O[C@@H](CO)[C@@H](O)[C@H](O)[C@@H]1O[C@@H]1O[C@H](CO)[C@@H](O)[C@H](OC(N)=O)[C@@H]1O)c1cnc[nH]1 [Bleomycin A5]
Plasmid DNA
  cleavage of plasmid DNA: significantly cleaved DNA

## CN1CCN(c2ccc(-c3ccc4nc(-c5cc(C(C)(C)C)c(OCCCC(=O)NCCCN=[N+]=[N-])c(C(C)(C)C)c5)[nH]c4c3)cc2)CC1 [Compound 1]
[1]; bulges of pre-miR-17, -18a, -20a, read-out: Kd's of 1 for the three bulges
  Kd: 30 to 40 µM
[1]
  binding of 1 to RNAs with bulges mutated to GC or AU base pairs: No binding was observed

## CCCN(CC(=O)N(CCC)CC(=O)N(CCC)CC(=O)N(CC(=O)NCCOCCOCCOCCOc1ccc(/C=C2\SC(Nc3ccccc3)=C(C(=O)OCC)C2=O)cc1O)Cc1cn(CCCNC(=O)CCCOc2c(C(C)(C)C)cc(-c3nc4cc(-c5ccc(N6CCN(C)CC6)cc5)ccc4[nH]3)cc2C(C)(C)C)nn1)C(=O)CN(Cc1cn(CCCNC(=O)CCCOc2c(C(C)(C)C)cc(-c3nc4cc(-c5ccc(N6CCN(C)CC6)cc5)ccc4[nH]3)cc2C(C)(C)C)nn1)C(C)=O [Compound 7]
pri-miR-17-92 cluster [2]; MDA-MB-231, 7 at 500 nM
  decrease of pre-miR-17 levels: 31(±3) %
  decrease of pre-miR-18a levels: 19(±4) %
  decrease of pre-miR-20a levels: 36(±3) %
  pri-miR-17/92 levels: unchanged
pri-miR-17-92 cluster [2]; MDA-MB-231, treatment with 7
  levels of mature miR-17, miR-18a and miR-20a: reduced the levels of mature miR-17, miR-18a, and miR-20a dose dependently
  levels of the other three mature miRNAs in the cluster: no effect
Cellular uptake analysis
  cellular uptake: taken up to a similar extent as 2
pri-miR-17-92 cluster [3]
  mature and pre-miRNA levels of the pre-miRNAs that bind 2: reduced levels
  pri-miR-17/92 levels: No effect
